From patent US20210284618A1, “FURANOCHALCONES AS INHIBITORS OF CYP1A1, CYP1A2 AND CYP1B1 FOR CANCER CHEMOPREVENTION” (Council of Scientific & Industrial Research, priority 2016, published 2021) come the findings set out here.

For one data set, the target named is T1, CYP2C19 (Homo sapiens, UniProt P33261).
T1 construct: host or cells: yeast microsomes (Saccharosomes)
The experiment in a line: CYP2C19 inhibition in Saccharosomes. The class given is biochemical. To be noted: Saccharosomes containing CYP2C19.

Another data set addresses T2, CYP1A1 (Homo sapiens, UniProt P04798).
T2 construct: host or cells: yeast microsomes (Saccharosomes)
T2 sequence (P04798 1-512): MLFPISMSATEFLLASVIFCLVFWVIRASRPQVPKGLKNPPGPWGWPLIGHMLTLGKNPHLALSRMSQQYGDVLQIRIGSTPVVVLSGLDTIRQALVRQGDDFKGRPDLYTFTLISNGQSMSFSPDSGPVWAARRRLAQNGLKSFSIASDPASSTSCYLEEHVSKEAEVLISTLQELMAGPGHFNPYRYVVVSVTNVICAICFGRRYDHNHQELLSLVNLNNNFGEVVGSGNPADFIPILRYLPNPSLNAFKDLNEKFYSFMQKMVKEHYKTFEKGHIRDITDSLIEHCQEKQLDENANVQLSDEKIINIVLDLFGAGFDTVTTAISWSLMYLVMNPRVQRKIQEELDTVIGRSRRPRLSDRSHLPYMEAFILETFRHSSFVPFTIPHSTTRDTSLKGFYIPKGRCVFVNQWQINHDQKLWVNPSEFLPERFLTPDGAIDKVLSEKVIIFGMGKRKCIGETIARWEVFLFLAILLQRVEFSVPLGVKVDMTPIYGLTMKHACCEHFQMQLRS
Put plainly: CYP1A1 inhibition in HEK293 cells transfected with pcDNA3.1/CYP1A1 (live cells). The class given is cell-based. As for the experimental part: Example 26. In-vitro CYP450 inhibition in HEK293 cells transfected with pcDNA3.1/CYP1A1 against 5 μM EROD. […] The HEK293 cells used here was procured from ‘European Collection of Authenticated Cell Cultures’ (catalog number. ECACC 85120602).

The target in a further data set is T3, CYP1A2 (Homo sapiens, UniProt P05177).
T3 construct: host or cells: yeast microsomes (Saccharosomes)
T3 sequence (P05177 1-516): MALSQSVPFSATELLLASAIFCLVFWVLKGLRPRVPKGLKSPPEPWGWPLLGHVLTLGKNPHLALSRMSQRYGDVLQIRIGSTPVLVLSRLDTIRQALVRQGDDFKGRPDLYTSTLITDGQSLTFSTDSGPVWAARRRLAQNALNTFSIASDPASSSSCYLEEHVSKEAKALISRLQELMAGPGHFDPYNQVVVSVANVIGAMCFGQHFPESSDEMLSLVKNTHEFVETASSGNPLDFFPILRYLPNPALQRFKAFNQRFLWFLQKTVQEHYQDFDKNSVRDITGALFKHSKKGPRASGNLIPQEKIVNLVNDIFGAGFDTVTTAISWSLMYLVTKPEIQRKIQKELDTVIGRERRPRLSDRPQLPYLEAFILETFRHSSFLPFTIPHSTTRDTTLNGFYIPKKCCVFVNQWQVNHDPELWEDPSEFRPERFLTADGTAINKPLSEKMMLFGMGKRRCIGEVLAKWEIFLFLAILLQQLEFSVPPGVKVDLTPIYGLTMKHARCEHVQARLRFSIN
Put plainly: CYP1A2 inhibition in Saccharosomes. The data set is classed as biochemical. As to the method: (§1) Example 25. IC50 determination for best compound against CYP1A1, CYP1B1 and other CYPs in Saccharosomes. Compounds were serially diluted to six different concentrations with 10% DMSO in a Sero-Well white microplate. The experiment was performed in a similar way as described above in examples 23 and 24.

For a further data set, the target named is T4, CYP2E1 (Homo sapiens, UniProt P05181).
T4 construct: host or cells: yeast microsomes (Saccharosomes)
Put plainly: CYP2E1 inhibition in Saccharosomes. The class given is biochemical. As to the method:
as §1

Data set [1] addresses T5, CYP1B1 (Homo sapiens, UniProt Q16678).
T5 sequence (Q16678 1-543): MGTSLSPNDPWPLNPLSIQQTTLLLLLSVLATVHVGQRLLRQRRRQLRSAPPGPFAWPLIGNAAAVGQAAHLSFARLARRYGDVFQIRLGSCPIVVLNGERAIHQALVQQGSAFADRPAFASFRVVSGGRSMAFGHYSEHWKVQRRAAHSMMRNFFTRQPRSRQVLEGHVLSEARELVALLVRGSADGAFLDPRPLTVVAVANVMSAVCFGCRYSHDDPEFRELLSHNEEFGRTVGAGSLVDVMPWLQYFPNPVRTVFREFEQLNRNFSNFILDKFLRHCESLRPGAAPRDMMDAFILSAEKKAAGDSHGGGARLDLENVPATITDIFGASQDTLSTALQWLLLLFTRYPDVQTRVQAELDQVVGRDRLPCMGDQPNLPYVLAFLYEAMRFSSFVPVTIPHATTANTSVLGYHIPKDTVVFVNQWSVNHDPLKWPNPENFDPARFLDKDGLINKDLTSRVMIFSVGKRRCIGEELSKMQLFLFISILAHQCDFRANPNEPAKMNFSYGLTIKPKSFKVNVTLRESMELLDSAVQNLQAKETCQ
Put plainly: CYP1B1 inhibition in live human cells (HEK293). The data set is classed as cell-based.

In the next data set the target is T6, CYP2A6 (Homo sapiens, UniProt P11509).
T6 construct: host or cells: yeast microsomes (Saccharosomes)
T6 sequence (P11509 1-494): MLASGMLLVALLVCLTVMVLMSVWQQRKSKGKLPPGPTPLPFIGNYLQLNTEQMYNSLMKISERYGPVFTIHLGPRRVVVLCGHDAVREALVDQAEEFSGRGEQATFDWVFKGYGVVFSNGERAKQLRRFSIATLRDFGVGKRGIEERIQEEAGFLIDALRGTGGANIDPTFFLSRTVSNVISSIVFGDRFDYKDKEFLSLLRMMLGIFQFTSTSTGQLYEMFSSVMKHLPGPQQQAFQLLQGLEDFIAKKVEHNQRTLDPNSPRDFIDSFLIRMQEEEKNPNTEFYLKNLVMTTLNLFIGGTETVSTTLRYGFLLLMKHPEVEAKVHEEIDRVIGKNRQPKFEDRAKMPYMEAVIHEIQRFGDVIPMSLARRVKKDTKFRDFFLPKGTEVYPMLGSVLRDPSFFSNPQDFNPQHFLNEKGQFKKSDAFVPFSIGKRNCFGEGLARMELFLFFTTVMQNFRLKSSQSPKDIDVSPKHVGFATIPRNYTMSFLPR
The experiment in a line: CYP2A6 inhibition in Saccharosomes. The data set is classed as biochemical. As to the method:
as §1

Data set [2] addresses T5, CYP1B1. The experiment in a line: In-vitro CYP450 1B1 enzyme inhibition in Saccharosomes. Set-up: purchased CYP Design Ltd; host or cells: yeast microsomes (Saccharosomes). The class given is biochemical. As to the method: Example 24. In-vitro CYP450 1B1 enzyme inhibition in Saccharosomes™: Regenerating system consists of: 5 μl Solution A (183 mg of NADP++183 mg of glucose-6-phosphate+654 μl of 1.0 M magnesium chloride solution+9.15 ml of sterile ultra-pure water)+1 μl Solution B (250 Units of glucose-6-phosphate dehydrogenase+6.25 ml of 5 mM sodium citrate; mixed in a tube and made up to 10 ml with sterile ultra-pure water)+39 μl 0.2 M Kpi (0.6 ml of 1.0M K2HPO4+9.4 ml of 1.0 M KH2PO4 were mixed and made up to 50 ml with sterile ultra-pure water)+5 μl potential inhibitory compound.
as §1

T4 sequence (P05181 whole entry): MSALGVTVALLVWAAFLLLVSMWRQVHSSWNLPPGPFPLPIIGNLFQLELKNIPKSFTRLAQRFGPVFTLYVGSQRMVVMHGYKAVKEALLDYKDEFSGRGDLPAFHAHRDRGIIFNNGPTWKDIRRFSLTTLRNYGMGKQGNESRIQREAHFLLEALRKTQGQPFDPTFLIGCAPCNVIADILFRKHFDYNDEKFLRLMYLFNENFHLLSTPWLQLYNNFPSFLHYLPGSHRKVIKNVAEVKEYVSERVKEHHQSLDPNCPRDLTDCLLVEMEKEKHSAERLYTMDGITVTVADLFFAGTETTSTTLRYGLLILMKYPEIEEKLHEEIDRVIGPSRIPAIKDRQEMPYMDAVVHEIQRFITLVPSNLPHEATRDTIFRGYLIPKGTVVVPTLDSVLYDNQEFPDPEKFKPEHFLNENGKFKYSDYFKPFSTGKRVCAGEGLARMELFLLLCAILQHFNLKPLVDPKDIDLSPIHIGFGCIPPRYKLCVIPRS
T1 sequence (P33261 whole entry): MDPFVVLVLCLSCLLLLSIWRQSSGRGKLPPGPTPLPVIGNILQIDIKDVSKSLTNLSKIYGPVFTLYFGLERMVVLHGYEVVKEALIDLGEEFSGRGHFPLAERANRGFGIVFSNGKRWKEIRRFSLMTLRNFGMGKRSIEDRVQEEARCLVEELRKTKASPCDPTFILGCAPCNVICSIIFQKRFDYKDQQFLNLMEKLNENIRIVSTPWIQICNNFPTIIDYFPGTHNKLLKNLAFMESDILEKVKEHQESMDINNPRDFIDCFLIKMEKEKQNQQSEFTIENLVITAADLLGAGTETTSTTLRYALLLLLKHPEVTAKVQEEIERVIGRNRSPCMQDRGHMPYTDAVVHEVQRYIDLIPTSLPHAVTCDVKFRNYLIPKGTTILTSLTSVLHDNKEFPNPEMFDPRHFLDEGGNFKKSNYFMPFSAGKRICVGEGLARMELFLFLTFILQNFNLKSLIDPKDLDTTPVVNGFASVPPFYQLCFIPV

Regarding `COc1c(C(=O)/C=C/c2cccnc2)c(O)c(OC)c2occc12` [Compound 8, 3-(4,7-dimethoxy-6-hydroxybenzofuran-5-yl)-1-(pyridin-3-yl)-3-oxopropene], the inhibition – broadly, the change of the read-out against control, counted positive when it falls – at 20 µM against CYP2C19 is 7%. For the same compound, the IC50 (commonly the concentration that inhibits the measured activity by half) on CYP1A1 came out at 470 nM; against CYP1A2, 166 nM; at CYP1B1 [1] it was 265 nM; against CYP1B1 [2], 660 nM. For the same compound, the “% inhibition of CYP1A1 in HEK293 cells at 10 μM” value at CYP1A1 (10 μM, 5 μM EROD) is recorded as 99.2%. Besides, the inhibition at 10 μM on CYP1A1 (human, HEK293 cells transfected with pcDNA3.1/CYP1A1 (live cells), probe EROD (5 μM), % inhibition of CYP1A1 in HEK293 cells at 10 μM, 10 μM, 5 μM EROD) is > 80%; on CYP1B1 [2] (human, Saccharosomes (yeast-derived) with recombinant CYP1B1, probe 7-ethoxyresorufin (5 μl of 0.1 mM), % inhibition of CYP1B1 in Saccharosomes at 10 μM, 10 μM test compound, 7-ethoxyresorufin), > 80%. Further, the “Inhibition of CYP2E1 at 10 μM” value at CYP2E1 was “No Inhibition”. The “Inhibition of CYP2A6 at 20 μM” value at CYP2A6 is recorded as “No Inhibition”. In addition, at CYP1B1 [2] (10 μM test compound, 7-ethoxyresorufin, 10 µM), the “% inhibition of CYP1B1 in Saccharosomes at 10 μM” value is on record as 80.3%.
